Source: the supplement of paper PMC10307832

How the values were obtained:
Assay in all cases: relative viability (nuclei count vs DMSO), 5 days (fraction); higher = more cells survive
Dovitinib + Luminespib = compound: CN1CCN(c2ccc3nc(-c4c(N)c5c(F)cccc5[nH]c4=O)[nH]c3c2)CC1 [Dovitinib] + CCNC(=O)c1noc(-c2cc(C(C)C)c(O)cc2O)c1-c1ccc(CN2CCOCC2)cc1 [Luminespib] (partner 0.01 µM)
Procedure, shortened: (§1)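 Relative viability was taken as the ratio of nuclei in treated wells to nuclei in vehicle wells. Lung cancer cell lines in 1536-well plates received compounds by pin tool one day after seeding, either one drug alone or a fixed anchor-drug dose plus five library-drug doses (not always all listed) in √10 steps. Nuclei were counted on 4× images after 5 days of treatment, and values are medians of duplicate plates.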

Dovitinib + Decitabine = compound: CN1CCN(c2ccc3nc(-c4c(N)c5c(F)cccc5[nH]c4=O)[nH]c3c2)CC1 [Dovitinib] + Nc1ncn([C@H]2C[C@H](O)[C@@H](CO)O2)c(=O)n1 [Decitabine] (partner 2 µM)
Procedure, shortened: as §1

Dovitinib + Olaparib = compound: CN1CCN(c2ccc3nc(-c4c(N)c5c(F)cccc5[nH]c4=O)[nH]c3c2)CC1 [Dovitinib] + O=C(c1cc(Cc2n[nH]c(=O)c3ccccc23)ccc1F)N1CCN(C(=O)C2CC2)CC1 [Olaparib] (partner 8 µM)
Procedure, shortened: as §1

Dovitinib + Lapatinib = compound: CN1CCN(c2ccc3nc(-c4c(N)c5c(F)cccc5[nH]c4=O)[nH]c3c2)CC1 [Dovitinib] + CS(=O)(=O)CCNCc1ccc(-c2ccc3ncnc(Nc4ccc(OCc5cccc(F)c5)c(Cl)c4)c3c2)o1 [Lapatinib] (partner 2 µM)
Procedure, shortened: as §1

Cell Line	relative viability (Dovitinib + Luminespib; first compound 0.02 µM)	relative viability (Dovitinib + Luminespib; first compound 0.06325 µM)	relative viability (Dovitinib + Luminespib; first compound 0.2 µM)	relative viability (Dovitinib + Luminespib; first compound 0.6325 µM)	relative viability (Dovitinib + Luminespib; first compound 2 µM)	relative viability (Dovitinib + Decitabine; first compound 0.02 µM)	relative viability (Dovitinib + Decitabine; first compound 0.06325 µM)	relative viability (Dovitinib + Decitabine; first compound 0.2 µM)	relative viability (Dovitinib + Decitabine; first compound 0.6325 µM)	relative viability (Dovitinib + Decitabine; first compound 2 µM)	relative viability (Dovitinib + Olaparib; first compound 0.02 µM)	relative viability (Dovitinib + Olaparib; first compound 0.06325 µM)	relative viability (Dovitinib + Olaparib; first compound 0.2 µM)	relative viability (Dovitinib + Olaparib; first compound 0.6325 µM)	relative viability (Dovitinib + Olaparib; first compound 2 µM)	relative viability (Dovitinib + Lapatinib; first compound 0.02 µM)	relative viability (Dovitinib + Lapatinib; first compound 0.06325 µM)	relative viability (Dovitinib + Lapatinib; first compound 0.2 µM)	relative viability (Dovitinib + Lapatinib; first compound 0.6325 µM)	relative viability (Dovitinib + Lapatinib; first compound 2 µM)
NCI-H441	0.351	0.382	0.286	0.32	0.342	0.254	0.202	0.271	0.223	0.3	0.513	0.549	0.534	0.62	0.588	–	–	–	–	–
NCI-H1793	0.199	0.164	0.165	0.211	0.167	0.548	0.602	0.567	0.446	0.498	0.901	0.928	0.786	0.873	1.02	0.875	0.658	0.684	0.657	0.631
NCI-H23	0.194	0.219	0.201	0.229	0.24	0.309	0.329	0.346	0.284	0.291	0.271	0.314	0.333	0.298	0.338	1.02	1.09	1.05	1.13	1.17
HARA	0.708	0.682	0.595	0.603	0.763	0.733	0.618	0.508	0.57	0.465	0.973	0.921	1.07	0.775	0.885	0.914	0.716	0.564	0.805	0.602
NCI-H1792	0.481	0.332	0.516	0.645	0.487	0.539	0.6	0.468	0.502	0.505	0.582	0.41	0.404	0.614	0.548	0.852	0.892	0.952	1.06	0.855
NCI-H1703	–	–	–	–	–	–	–	–	–	–	0.399	0.502	0.325	0.329	0.24	1.17	0.955	0.788	0.784	0.42
NCI-H2342	0.675	0.711	0.741	0.692	0.579	0.799	0.697	0.672	0.756	0.776	0.486	0.415	0.439	0.486	0.427	–	–	–	–	–
CAL-12T	0.297	0.469	0.495	0.519	0.219	–	–	–	–	–	0.69	0.434	0.733	0.61	0.713	0.709	0.501	0.713	0.618	0.986
NCI-H727	0.272	0.373	0.285	0.322	0.373	0.824	0.685	0.884	1.03	0.926	0.584	0.72	0.719	0.679	0.674	0.904	0.629	0.673	0.882	0.91
NCI-H2085	0.41	0.457	0.485	0.495	0.484	0.606	0.532	0.592	0.573	0.558	0.731	0.828	0.723	0.762	0.758	0.834	0.785	0.723	0.894	0.818
NCI-H1395	0.703	0.661	0.757	0.629	0.665	0.719	0.668	0.747	0.713	0.696	0.533	0.431	0.478	0.505	0.479	1.01	0.879	1.08	1.04	1.12
NCI-H1648	–	–	–	–	–	0.502	0.445	0.444	0.455	0.458	0.506	0.815	0.932	0.667	0.77	–	–	–	–	–
NCI-H460	0.0302	0.034	0.0441	0.0303	0.0426	0.464	0.518	0.456	0.494	0.432	0.372	0.488	0.403	0.426	0.411	0.913	1.05	1	0.878	1.03
A549	–	–	–	–	–	0.225	0.329	0.248	0.292	0.237	0.301	0.329	0.353	0.458	0.353	1	0.956	0.893	0.817	0.887
IA-LM	–	–	–	–	–	–	–	–	–	–	0.723	0.812	0.916	0.795	0.845	1.07	0.693	0.709	0.648	0.821
EKVX	0.914	0.901	0.882	0.89	0.866	0.388	0.399	0.348	0.339	0.286	0.897	0.723	0.862	0.831	0.904	0.252	0.189	0.257	0.21	0.21
ChaGo-K-1	0.631	0.627	0.567	0.609	0.628	0.528	0.517	0.498	0.514	0.487	0.398	0.461	0.397	0.395	0.366	–	–	–	–	–
NCI-H1755	0.41	0.305	0.417	0.54	0.508	0.679	0.736	0.756	0.723	0.677	0.893	0.858	0.914	0.842	0.878	1.08	1.07	1.02	1.05	0.976
NCI-H2228	0.104	0.151	0.161	0.141	0.172	–	–	–	–	–	0.689	0.592	0.866	0.768	0.573	1.18	0.942	0.991	1.08	0.831
